In US8080582B2, “Derivatives of 8-epiblechnic acid and their effects on down-regulation of endothelin (ETA) receptor mRNA” (ScinoPharm Taiwan Ltd., priority 2008, dated 2011):

What was measured:
Assay type in all cases: cell-based
[1] = test system: endothelin receptor mRNA expression; test: PCR of endothelin receptor mRNA expression in vascular smooth muscle cells; conditions: 100 μg/ml, 48 hrs, PCR 25 or 30 reaction cycles
Protocol: Extraction of cellular RNA: Subculturing smooth muscle cells to 100-mm culture dishes. After the cells had filled the culture dishes, Sal-B and its analogs were added to treat the cells for 48 hrs. After that, 1×PBS solutions were added to wash the cells three times. After adding 1 ml TRIzol, the cells were scraped off and placed in 1.5 ml micro-centrifuge tubes. Following the addition of 0.2 ml chloroform to each tube, the tubes were shaken, left at room temperature for 3 min., and run in a centrifuge at 12,000 rpm for 15 min. The supernatant liquid was removed and the cells placed in new micro-centrifuge tubes. After adding an amount of isopropyl alcohol equivalent to one-half of the volume of the supernatant liquid, and mixing until homogeneous, the samples were allowed to stand at room temperature for 10 min. The supernatant liquid was removed after centrifugation at 12,000 rpm for 10 min. 1 ml 70% alcohol was added to wash out salts, followed by centrifugation for 5 min. and removal of supernatant liquid. The samples were dissolved in 50 μl DEPC-H2O after drying.
(1) cDNA synthesis: 1 μl Random hexamer primer (20 μM) and 1 μl dNTP(10 mm) were added to 3 μg RNA, which was allowed to react at 65° C. for 5 min., and then placed on ice promptly. […]

ETBR protein expression = test: Western blot of ETBR protein expression in vascular smooth muscle cells; conditions: 100 μg/ml, 48 hrs
Protocol: (§1) The smooth muscle cells (5×10^5 cells in 35 mm culture dish) were treated with Sal-B and its analogs for 48 hrs, and then a proteinase inhibitor solution was used to collect proteins from the cells.
(§2) The protein concentrations in the samples were calculated by using BSA as the standards to construct a standard curve. After mixing Bradford Protein assay reagent evenly with the standards or the samples, the OD595 absorption values were measured. Standard curve was constructed by plotting OD595 values of the BSA standards versus their concentrations. The protein concentrations of the samples were calculated from the standard curve.
(§3) Bio-Rad's Mini-Protean III Dual Slab Cell instrument was used. A 12% polyacrylamide separating gel solution was prepared and placed into a electrophoretic gel preparation device. Deionized water was added to flat the surface of the separating gel solution, and the water was poured off after the gel had coagulated. A stacking gel solution containing 5% polyacrylamide was added and then a comb was inserted. The comb was removed after the stacking gel had coagulated, and the gel was placed into an upright electrophoresis tank. A suitable amount of running buffer was added, and then the protein samples were loaded into the wells of stacking gel layer. […]

ETAR protein expression = test: Western blot of ETAR protein expression in vascular smooth muscle cells; conditions: 100 μg/ml, 48 hrs
Protocol: as §1, §2, §3

[2] = test system: ETAR gene expression in MCF-7 cells; test: PCR of ETAR gene expression in MCF-7 cancer cells; conditions: 48 hrs
Protocol: (§4) PC-3 and MCF-7 cancer cells were treated with Sal-B and EBA for 48 hrs, and the identical concentrations of cellular whole RNA were sampled for the synthesis of cDNA by using reverse transcriptase. The PCR method was then used to compare the amounts of endothelin receptor mRNA expression. While the PC-3 cells were treated with either Sal-B or EBA, its ETAR gene expression was not reduced.

[3] = test system: ETAR gene expression in PC-3 cells; test: PCR of ETAR gene expression in PC-3 cancer cells; conditions: 48 hrs
Protocol: as §4

Molecule	Endothelin receptor mRNA expression compared with control [1]	ETBR protein expression compared with control (ETBR protein expression)	ETAR protein expression compared with control (ETAR protein expression)	ETAR gene (mRNA) expression [2]	ETAR gene expression [3]
O=C(/C=C/c1ccc(O)c2c1[C@H](C(=O)O[C@H](Cc1ccc(O)c(O)c1)C(=O)[O-])[C@@H](c1ccc(O)c(O)c1)O2)O[C@H](Cc1ccc(O)c(O)c1)C(=O)[O-].[Mg+2] [Sal-B, magnesium lithospermate B]	reduced as comparing with the control	no effect on ETBR protein expression	significantly reduced	can reduce the expression of ETAR mRNA	not reduced
epiblechnic acid [EBA]	reduced as comparing with the control	no effect on ETBR protein expression	significantly reduced	reduced significantly	not reduced
